Data on 14 compounds can be found in patent publication US6849732B2, “Metalloproteinase inhibitors, pharmaceutical compositions containing them and their pharmaceutical uses, and methods and intermediates useful for their preparation” (Agouron Pharmaceuticals, Inc., priority 1995, dated 2005).

Where a name gives a salt, the structure may show the parent alone. Read-outs that look alike come from different tables or passages of the source.

Holding throughout (type): biochemical
One assay has as its target T1, matrilysin (Matr.) (Homo sapiens, UniProt P09237).
T1 sequence (P09237 95-267): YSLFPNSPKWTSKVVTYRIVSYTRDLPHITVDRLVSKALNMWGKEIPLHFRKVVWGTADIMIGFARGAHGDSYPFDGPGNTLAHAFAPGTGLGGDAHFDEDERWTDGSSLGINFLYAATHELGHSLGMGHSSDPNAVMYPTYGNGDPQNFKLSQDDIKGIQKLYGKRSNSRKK
Briefly: MCA fluorogenic enzyme assay, competitive inhibition analysis (Ki,app), matrilysin. The note with it: MCA peptide substrate, 37° C., pH 7.5, read-out: Enzyme Inhibition Constants (K1) Matr. The method, then: Stromelysin enzymatic activity was measured using a modified version of a resonance energy transfer fluorogenic assay as described in FEBS, vol. 296(3), p. 263 (1992), the disclosure of which is incorporated herein by reference. The MCA-peptide substrate is shown below. The fluorescent MCA group is quenched by resonance energy transfer to the 2,4-dinitrophenyl group. Matrix metalloproteinases cleave this substrate at the Gly-Leu bond. Cleavage results in the loss of energy transfer and a large increase in fluorescence of the MCA group. [drawing 56] 7-methoxycoumarin-4-yl-acetyl-pro-leu-gly-leu-3-(2,4-dinitrophenyl)-L-2,3-diaminoproprionyl-ala-arg-NH2
The MCA assay was performed at 37° C. in buffer containing 50 mM Tricine (pH 7.5), 10 mM CaCl2, 200 mM NaCl, and 1% DMSO with the following concentrations of matrix metalloproteinases: 1.4 nM stromelyin, 0.063 nM matrilysin, and 0.030 nM gelatinase A. The concentration of MCA substrate was 10 or 20 μM in a final volume of 1.6 mL. Fluorescence data was collected with Perkin-Elmer LS-5B and LS-5B spectrofluorimeters with λexcitation=328 nm and λemission=393 nm. Spectrofluorimeters were interfaced with IBM-compatible microcomputer systems.
The Km for the MCA peptide substrate with the matrix metalloproteinases is quite high and exceeds its solubility under assay conditions. Consequently, the apparent Ki (Ki,app) was determined to describe the strength of inhibition. However, in this case, Ki,app would be essentially equal to Ki since [S]<<Km. For the determination of Ki,app, the concentration of the inhibitor was varied at a constant and low concentration of substrate and the steady-state rates of fluorescence change determined. In most cases absorptive quench due to the presence of ligand was not observed. For slow-binding inhibitors, onset of inhibition curves were collected for at least 45 minutes so that equilibrium was established. Steady-state rates of fluorescence change were obtained by fitting a curve to an equation for a single exponential decay containing a linear phase. The fitted value of the linear phase was taken as the steady-state rate. The steady-state rates were fitted to the Michaelis equation describing competitive inhibition by non-linear methods. Data resulting from tight-binding inhibition was analyzed, and Ki,app determined by fitting the data to the tight-binding equation of Morrison See (Biochem. Biophys. Acta, vol. 185, pp. 269-286 (1969)) by non-linear methods.

The target in a further assay is T2, gelatinase A (HG72kD) (Homo sapiens, UniProt P08253).
T2 sequence (P08253 110-660): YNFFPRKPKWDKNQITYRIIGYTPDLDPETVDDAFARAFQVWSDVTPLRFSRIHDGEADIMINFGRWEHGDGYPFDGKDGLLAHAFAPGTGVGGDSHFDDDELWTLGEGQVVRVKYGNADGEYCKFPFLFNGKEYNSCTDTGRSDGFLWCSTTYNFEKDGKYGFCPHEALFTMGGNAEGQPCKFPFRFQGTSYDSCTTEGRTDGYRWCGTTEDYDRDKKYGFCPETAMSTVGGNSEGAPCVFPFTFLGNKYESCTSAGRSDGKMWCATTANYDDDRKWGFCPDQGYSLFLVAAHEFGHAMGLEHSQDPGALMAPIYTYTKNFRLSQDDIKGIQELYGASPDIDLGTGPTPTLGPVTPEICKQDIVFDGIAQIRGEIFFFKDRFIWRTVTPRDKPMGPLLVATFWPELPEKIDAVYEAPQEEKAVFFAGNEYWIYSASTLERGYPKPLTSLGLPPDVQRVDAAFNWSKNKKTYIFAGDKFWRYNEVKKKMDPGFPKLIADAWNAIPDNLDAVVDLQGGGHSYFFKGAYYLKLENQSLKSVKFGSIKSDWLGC
Briefly: MCA fluorogenic enzyme assay, competitive inhibition analysis (Ki,app), gelatinase A. The note with it: MCA peptide substrate, 37° C., pH 7.5, read-out: Enzyme Inhibition Constants (K1) HG72kD.

The target in another assay is T3, HFC (Homo sapiens, UniProt P03956).
T3 sequence (P03956 100-469): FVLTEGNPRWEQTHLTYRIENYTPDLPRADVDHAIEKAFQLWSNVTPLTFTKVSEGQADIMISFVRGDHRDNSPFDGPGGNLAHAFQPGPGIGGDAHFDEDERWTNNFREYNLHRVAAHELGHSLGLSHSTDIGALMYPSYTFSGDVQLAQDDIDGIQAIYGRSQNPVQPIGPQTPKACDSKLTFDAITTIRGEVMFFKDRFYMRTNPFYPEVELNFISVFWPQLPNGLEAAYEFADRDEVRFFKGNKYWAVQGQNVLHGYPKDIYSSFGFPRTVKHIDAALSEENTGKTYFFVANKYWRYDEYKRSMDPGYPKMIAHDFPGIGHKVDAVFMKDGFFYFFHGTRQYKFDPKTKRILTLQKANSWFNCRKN
Briefly: MCA fluorogenic enzyme assay, competitive inhibition analysis (Ki,app), HFC. The note with it: MCA peptide substrate, 37° C., pH 7.5, read-out: Enzyme Inhibition Constants (K1) HFC.

The target of another assay is Coll3 (Homo sapiens, UniProt P45452). Kind of assay: MCA fluorogenic enzyme assay, competitive inhibition analysis (Ki,app), Coll3. As to conditions: MCA peptide substrate, 37° C., pH 7.5, read-out: Enzyme Inhibition Constants (K1) Coll3.
The target in the next assay is stromelysin (HSLN) (Homo sapiens, UniProt P08254). Briefly: MCA fluorogenic enzyme assay, competitive inhibition analysis (Ki,app), stromelysin.
stromelysin (HSLN), sequence (P08254 100-477): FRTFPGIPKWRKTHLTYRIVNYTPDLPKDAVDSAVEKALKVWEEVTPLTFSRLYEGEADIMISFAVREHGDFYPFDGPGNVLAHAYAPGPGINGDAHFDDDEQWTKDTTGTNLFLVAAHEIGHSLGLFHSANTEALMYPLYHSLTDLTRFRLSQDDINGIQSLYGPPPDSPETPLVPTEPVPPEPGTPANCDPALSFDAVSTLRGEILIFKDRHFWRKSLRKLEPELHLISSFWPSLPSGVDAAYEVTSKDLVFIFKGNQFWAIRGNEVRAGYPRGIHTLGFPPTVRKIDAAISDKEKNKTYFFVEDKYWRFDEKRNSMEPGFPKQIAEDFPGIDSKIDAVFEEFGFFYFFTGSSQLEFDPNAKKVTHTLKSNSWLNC
The mark [1] stands for this setting: Ki,app, MCA peptide substrate, 37° C., pH 7.5, read-out: Enzyme Inhibition Constants (K1) HSLN.

Turning to `O=C(NO)C1C[S+]([O-])CCN1S(=O)(=O)c1ccc(Oc2ccc(F)cc2)cc1` (racemic) [Example 14(b), 1(R/S),3(R/S)-N-hydroxy-1-oxo-4-(4-(4-fluorophenoxy)benzene-sulfonyl)-tetrahydro-2H-1,4-thiazine-3-carboxamide], the Ki on matrilysin (Matr.) is 306 nM; at gelatinase A (HG72kD), 0.034 nM; at HFC, 28 nM; at Coll3, 0.016 nM; at stromelysin (HSLN) (setting [1]), 0.79 nM.
Regarding `O=C(NO)[C@H]1CNCCN1S(=O)(=O)c1ccc(Oc2ccc(Cl)cc2)cc1` [Example 10(a), 2(R)-N-hydroxy-1-(4-(4-chlorophenoxy)benzenesulfonyl)-piperazine-2-carboxamide hydrochloride], the Ki on matrilysin (Matr.) is 171 nM; at gelatinase A (HG72kD), 0.413 nM; on HFC it was 34 nM; on Coll3, 0.363 nM; at stromelysin (HSLN) (setting [1]), 1 nM.
For `CC1(C)[C@H](C(=O)NO)N(S(=O)(=O)c2ccc(Oc3ccc(Br)cc3)cc2)CC[S@@+]1[O-]` [Example 17(a), 1(R),3(S)-N-hydroxy-4-(4-(4-bromophenoxy)benzenesulfonyl)-2,2-dimethyl-1-oxo-tetrahydro-2H-1,4-thiazine-3-carboxamide], in that order: 11 nM, 0.009 nM, 3.6 nM, 0.01 nM and 0.056 nM.
For the compound `CC1(C)SCCN(S(=O)(=O)c2ccc(Oc3ccccn3)cc2)[C@H]1C(=O)NO` [Example 18(b), 3(S)-N-hydroxy-4-(4-((pyrid-2-yl)oxy)benzenesulfonyl)-2,2-dimethyl-tetrahydro-2H-1,4-thiazine-3-carboxamide], the Ki on matrilysin (Matr.) stood at 70 nM; on gelatinase A (HG72kD), 0.202 nM; at HFC, 12 nM; at Coll3, 0.074 nM; at stromelysin (HSLN), 0.51 nM.
Regarding “3(S)-4-(4-(4-(furan-3-yl)phenoxy)benzenesulfonyl-N-hydroxy-tetrahydro-2H-1,4-thiazine-3-carboxamide [Example 20]”, the Ki was 0.7 nM at matrilysin (Matr.); 0.0017 nM at gelatinase A (HG72kD); 1.4 nM on HFC; 0.002 nM on Coll3; 0.06 nM at stromelysin (HSLN) (setting [1]).
With `CS(=O)(=O)N1CCN(S(=O)(=O)c2ccc(Oc3ccc(F)cc3)cc2)[C@@H](C(=O)NO)C1` [Example 12(b)], the Ki amounted to 52 nM on matrilysin (Matr.); 0.007 nM at gelatinase A (HG72kD); 4.7 nM on HFC; 0.005 nM on Coll3; 0.13 nM at stromelysin (HSLN) (setting [1]).
For `O=C(NO)C1CSCCN1S(=O)(=O)c1ccc(Oc2ccc(F)cc2)cc1` (racemic) [Example 13(c), 3(R/S)-N-hydroxy-4-(4-(4-fluorophenoxy)benzenesulfonyl)-tetrahydro-2H-1,4-thiazine-3-carboxamide], in that order: 313 nM, 0.028 nM, 40 nM, 0.035 nM and 0.53 nM.
For `CS(=O)(=O)N1CCN(S(=O)(=O)c2ccc(Oc3ccc(Cl)cc3)cc2)[C@@H](C(=O)NO)C1` [Example 12(a), 2(R)-N-hydroxy-1-(4-(4-chlorophenoxy)benzenesulfonyl)-4-(methanesulfonyl)-piperazine-2-carboxamide], in that order: 28 nM, 0.003 nM, 2.5 nM, 0.002 nM and 0.043 nM.
For `Cn1cnc(S(=O)(=O)N2CCN(S(=O)(=O)c3ccc(Oc4ccc(Cl)cc4)cc3)[C@@H](C(=O)NO)C2)c1` [Example 12(d), 2 (R)-N-hydroxy-1-(4-(4-chlorophenoxy)benzenesulfonyl)-4-(1-methylimidazole-4-sulfonyl)-piperazine-2-carboxamide], in that order: 40 nM, 0.004 nM, 7 nM, 0.006 nM and 0.09 nM.
Consider `O=C1C[C@H](C(=O)NO)N(S(=O)(=O)c2ccc(Oc3ccccc3)cc2)CN1` [Example 15(a), 6(R)-(N-hydroxycarbamoyl)-1-(4-phenoxy)benzenesulfonyl-tetrahydropyrimidin-4-one], for which the Ki at matrilysin (Matr.) was 1300 nM; at gelatinase A (HG72kD), 0.057 nM; at HFC it was 210 nM; at Coll3, 0.124 nM; at stromelysin (HSLN) (setting [1]), 4.6 nM.
For `CC(C)(C)OC(=O)N1CCN(S(=O)(=O)c2ccc(Oc3ccccn3)cc2)C(C(=O)NO)C1` (racemic) [Example 9(d), 2(R/S)-N-hydroxy-1-(4-(pyrid-2-yl)oxybenzenesulfonyl)-4-(t-butoxycarbonyl)-piperazine-2-carboxamide], in that order: 2850 nM, 0.716 nM, 550 nM, 1.64 nM and 17 nM.
As for `CC(C)(C)OC(=O)N1CCN(S(=O)(=O)c2ccc(Oc3ccc(C#N)cc3)cc2)C(C(=O)NO)C1` (racemic) [Example 9(c), 2(R/S)-N-hydroxy-1-(4-(4-cyanophenoxy)benzenesulfonyl)-4-(t-butoxycarbonyl)-piperazine-2-carboxamide], the Ki on matrilysin (Matr.) was 3570 nM; at gelatinase A (HG72kD), 0.696 nM; on HFC, 580 nM; on Coll3, 1.97 nM; at stromelysin (HSLN) (setting [1]), 14 nM.
For `O=C(NO)[C@@H]1C[S@+]([O-])CCN1S(=O)(=O)c1ccc(Oc2ccc(Br)cc2)cc1` (racemic) [Example 14(a), 1(R/S),3(R/S)-N-hydroxy-1-oxo-4-(4-(4-bromophenoxy)benzene-sulfonyl)-tetrahydro-2H-1,4-thiazine-3-carboxamide], in that order: 109 nM, 0.013 nM, 23 nM, 0.017 nM and 0.41 nM.
For `CN1CCN(S(=O)(=O)c2ccc(Oc3ccc(Cl)cc3)cc2)[C@@H](C(=O)NO)C1` [Example 11(a), 2(R)-N-hydroxy-1-(4-(4-chlorophenoxy)benzenesulfonyl)-4-methyl-piperazine-2-carboxamide hydrochloride], in that order: 993 nM, 0.025 nM, 130 nM, 0.02 nM and 0.67 nM.
